From patent US10501461B2, “Tyrosine amide derivatives as Rho-kinase inhibitors” (CHIESI FARMACEUTICI S.P.A., priority 2017, dated 2019)

How the values were obtained:
[1] = biological target: Rho kinase 1 (ROCK-I) (Homo sapiens, UniProt Q13464); assay: In vitro Rho kinase inhibitory activity assay (ADP-Glo), Rho kinase 1; type: biochemical; details: 10 μM ATP, 25° C., expressed as range of activity
Outline: (§1)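 ADP-Glo luminescence assay at 25 °C in 40 mM Tris pH 7.5, 20 mM MgCl2, 0.1 mg/ml BSA, 50 μM DTT, with 2.5 μM myelin basic protein, 10 μM ATP and 1% DMSO. Compound and ROCK1 or ROCK2 were preincubated 30 min, then reacted 1 h. IC50 came from a sigmoidal fit; Ki via Cheng-Prusoff.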

[2] = biological target: Rho kinase 2 (ROCK-II) (Homo sapiens, UniProt O75116); assay: In vitro Rho kinase inhibitory activity assay (ADP-Glo), Rho kinase 2; type: biochemical; details: 10 μM ATP, 25° C., expressed as range of activity
Rho kinase 2 (ROCK-II), sequence (O75116 whole entry): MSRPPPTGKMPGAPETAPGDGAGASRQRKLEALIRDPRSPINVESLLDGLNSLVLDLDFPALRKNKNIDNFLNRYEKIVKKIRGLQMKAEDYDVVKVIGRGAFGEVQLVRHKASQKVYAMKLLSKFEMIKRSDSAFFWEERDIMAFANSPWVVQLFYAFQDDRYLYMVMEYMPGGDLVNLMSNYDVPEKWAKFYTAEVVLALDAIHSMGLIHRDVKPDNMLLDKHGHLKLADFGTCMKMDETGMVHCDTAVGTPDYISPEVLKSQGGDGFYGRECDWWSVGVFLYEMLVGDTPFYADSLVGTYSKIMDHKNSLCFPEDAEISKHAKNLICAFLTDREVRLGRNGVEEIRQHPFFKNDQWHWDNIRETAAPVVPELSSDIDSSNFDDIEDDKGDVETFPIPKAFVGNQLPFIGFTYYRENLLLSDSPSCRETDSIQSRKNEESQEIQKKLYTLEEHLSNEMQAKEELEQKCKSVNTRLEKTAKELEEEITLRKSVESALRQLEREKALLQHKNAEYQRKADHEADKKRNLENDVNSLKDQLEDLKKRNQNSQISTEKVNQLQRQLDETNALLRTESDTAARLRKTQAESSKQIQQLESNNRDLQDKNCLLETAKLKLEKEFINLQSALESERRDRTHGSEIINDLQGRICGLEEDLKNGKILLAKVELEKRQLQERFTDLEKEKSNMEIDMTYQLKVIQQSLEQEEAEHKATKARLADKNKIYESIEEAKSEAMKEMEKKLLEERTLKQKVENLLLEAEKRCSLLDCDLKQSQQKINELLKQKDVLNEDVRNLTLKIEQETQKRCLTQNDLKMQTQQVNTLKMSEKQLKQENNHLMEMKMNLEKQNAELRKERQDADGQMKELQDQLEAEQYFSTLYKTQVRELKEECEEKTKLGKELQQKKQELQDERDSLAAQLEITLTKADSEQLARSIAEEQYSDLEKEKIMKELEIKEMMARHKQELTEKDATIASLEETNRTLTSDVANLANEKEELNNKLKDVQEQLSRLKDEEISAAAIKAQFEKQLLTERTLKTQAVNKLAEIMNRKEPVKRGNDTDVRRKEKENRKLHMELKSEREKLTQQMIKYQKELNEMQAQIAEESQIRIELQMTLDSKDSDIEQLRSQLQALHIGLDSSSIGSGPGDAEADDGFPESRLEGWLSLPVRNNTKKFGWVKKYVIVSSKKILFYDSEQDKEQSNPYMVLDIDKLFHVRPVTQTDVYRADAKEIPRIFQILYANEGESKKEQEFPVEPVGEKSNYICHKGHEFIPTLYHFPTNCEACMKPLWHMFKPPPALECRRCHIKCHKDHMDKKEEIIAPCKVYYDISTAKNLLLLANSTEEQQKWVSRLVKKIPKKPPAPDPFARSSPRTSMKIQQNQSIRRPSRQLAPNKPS
Outline: as §1

Rho kinase 1 (ROCK-I), sequence (Q13464 whole entry): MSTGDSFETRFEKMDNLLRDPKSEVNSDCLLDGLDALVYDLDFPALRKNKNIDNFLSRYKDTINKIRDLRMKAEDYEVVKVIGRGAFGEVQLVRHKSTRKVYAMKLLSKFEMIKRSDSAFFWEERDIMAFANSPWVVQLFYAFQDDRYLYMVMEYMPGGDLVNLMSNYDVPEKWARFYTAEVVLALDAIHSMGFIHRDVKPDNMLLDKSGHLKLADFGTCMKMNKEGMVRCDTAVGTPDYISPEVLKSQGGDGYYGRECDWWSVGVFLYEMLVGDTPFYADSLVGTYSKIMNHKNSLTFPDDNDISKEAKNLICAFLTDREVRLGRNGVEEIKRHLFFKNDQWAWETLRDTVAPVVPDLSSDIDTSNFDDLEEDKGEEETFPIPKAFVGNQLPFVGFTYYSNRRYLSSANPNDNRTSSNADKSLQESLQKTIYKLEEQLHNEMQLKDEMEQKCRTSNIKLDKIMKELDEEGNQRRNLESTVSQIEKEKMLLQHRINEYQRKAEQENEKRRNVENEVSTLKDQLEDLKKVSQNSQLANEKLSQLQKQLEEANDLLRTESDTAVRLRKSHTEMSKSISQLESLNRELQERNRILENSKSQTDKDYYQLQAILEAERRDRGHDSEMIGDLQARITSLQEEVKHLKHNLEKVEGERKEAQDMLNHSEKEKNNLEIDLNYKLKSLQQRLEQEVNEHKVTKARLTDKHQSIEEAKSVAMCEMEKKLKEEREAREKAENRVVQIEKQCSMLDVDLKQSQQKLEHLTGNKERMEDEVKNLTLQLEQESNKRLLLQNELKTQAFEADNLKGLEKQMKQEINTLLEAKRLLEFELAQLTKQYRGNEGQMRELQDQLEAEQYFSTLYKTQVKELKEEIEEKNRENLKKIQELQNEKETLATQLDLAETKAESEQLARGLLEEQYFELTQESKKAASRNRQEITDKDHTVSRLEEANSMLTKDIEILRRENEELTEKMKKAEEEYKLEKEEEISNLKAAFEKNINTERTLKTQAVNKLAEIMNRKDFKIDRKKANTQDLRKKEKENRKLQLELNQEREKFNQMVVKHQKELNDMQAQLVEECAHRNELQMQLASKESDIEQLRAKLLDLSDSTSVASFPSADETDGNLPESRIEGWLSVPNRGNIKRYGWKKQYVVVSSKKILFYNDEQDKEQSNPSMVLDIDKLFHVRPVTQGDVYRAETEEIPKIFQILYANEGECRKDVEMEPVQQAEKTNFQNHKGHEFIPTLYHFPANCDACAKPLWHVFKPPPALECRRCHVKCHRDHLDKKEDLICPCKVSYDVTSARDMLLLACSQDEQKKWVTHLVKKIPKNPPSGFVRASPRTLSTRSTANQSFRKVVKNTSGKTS

Structure (SMILES) | Ki [1] | Ki [2]
Cc1c[nH]c2nccc(Oc3ccc(CC(N)C(=O)NCCc4ccccc4)cc3F)c12 (stereo not shown) [Example 76, 2-amino-3-(3-fluoro-4-((3-methyl-1H-pyrrolo[2,3-b]pyridin-4-yl)oxy)phenyl)-N-phenethylpropanamide] | < 3 nM | < 3 nM
N[C@@H](Cc1ccc(Oc2ccnc3[nH]cc(CO)c23)c(F)c1)C(=O)NC1CCCCC1 [Example 208, (S)-2-amino-N-cyclohexyl-3-(3-fluoro-4-((3-(hydroxymethyl)-1H-pyrrolo[2,3-b]pyridin-4-yl)oxy)phenyl)-propanamide] | < 3 nM | < 3 nM
Cc1c[nH]c2nccc(Oc3ccc(CC(N)C(=O)NCCCN4CCOCC4)cc3F)c12 (stereo not shown) [Example 79, 2-amino-3-(3-fluoro-4-((3-methyl-1H-pyrrolo[2,3-b]pyridin-4-yl)oxy)phenyl)-N-(3-morpholinopropyl)propanamide] | < 3 nM | < 3 nM
Cc1c[nH]c2nccc(Oc3ccc(CC(N)C(=O)N4CCN(C)CC4CO)cc3F)c12 (stereo not shown) [Example 64, 2-amino-3-(3-fluoro-4-((3-methyl-1H-pyrrolo[2,3-b]pyridin-4-yl)oxy)phenyl)-1-(2-(hydroxymethyl)-4-methylpiperazin-1-yl)propan-1-one] | 3 to 30 nM | < 3 nM
CN(C)C(=O)C(Cc1ccc(Oc2ccnc3[nH]ccc23)cc1)NC(=O)C1CCNC1 (stereo not shown) [Example 178, N-(3-(4-((1H-pyrrolo[2,3-b]pyridin-4-yl)oxy)phenyl)-1-(dimethylamino)-1-oxopropan-2-yl)pyrrolidine-3-carboxamide] | > 30 nM | > 30 nM
Cc1c[nH]c2nccc(Oc3ccc(C[C@H](N)C(=O)N4CCC(O)(Cc5ccccc5)CC4)cc3F)c12 [Example 9, (S)-2-amino-1-(4-benzyl-4-hydroxypiperidin-1-yl)-3-(3-fluoro-4-((3-methyl-1H-pyrrolo[2,3-b]pyridin-4-yl)oxy)phenyl)propan-1-one] | < 3 nM | < 3 nM
Cc1c[nH]c2nccc(Oc3ccc(C[C@H](N)C(=O)NCC4CCCCC4)cc3)c12 [Example 139, (S)-2-amino-N-(cyclohexylmethyl)-3-(4-((3-methyl-1H-pyrrolo[2,3-b]pyridin-4-yl)oxy)phenyl)propanamide] | < 3 nM | < 3 nM
Cc1c[nH]c2nccc(Oc3ccc(CC(N)C(=O)NCCc4ccccn4)cc3F)c12 (stereo not shown) [Example 69, 2-amino-3-(3-fluoro-4-((3-methyl-1H-pyrrolo[2,3-b]pyridin-4-yl)oxy)phenyl)-N-(2-(pyridin-2-yl)ethyl)propanamide] | < 3 nM | < 3 nM
Cc1c[nH]c2nccc(Oc3ccc(C[C@H](N)C(=O)N4CCN(C(=O)N(C)C)CC4)cc3F)c12 [Example 23, (S)-4-(2-amino-3-(3-fluoro-4-((3-methyl-1H-pyrrolo[2,3-b]pyridin-4-yl)oxy)phenyl)propanoyl)-N,N-dimethylpiperazine-1-carboxamide] | < 3 nM | < 3 nM
Cc1c[nH]c2nccc(Oc3ccc(C[C@@H](N)C(=O)NCc4ccccc4)cc3)c12 [Example 136, (R)-2-amino-N-benzyl-3-(4-((3-methyl-1H-pyrrolo[2,3-b]pyridin-4-yl)oxy)phenyl)propanamide] | 3 to 30 nM | 3 to 30 nM
CNC(=O)C(Cc1ccc(Oc2ccnc3[nH]ccc23)cc1)NCC1CCCCC1 (stereo not shown) [Example 185, 3-(4-((1H-pyrrolo[2,3-b]pyridin-4-yl)oxy)phenyl)-2-((cyclohexylmethyl)amino)-N-methylpropanamide] | > 30 nM | > 30 nM
Cc1c[nH]c2nccc(Oc3ccc(C[C@H](N)C(=O)N4CCN(Cc5nccn5C)CC4)cc3F)c12 [Example 156, (S)-2-amino-3-(3-fluoro-4-((3-methyl-1H-pyrrolo[2,3-b]pyridin-4-yl)oxy)phenyl)-1-(4-((1-methyl-1H-imidazol-2-yl)methyl)piperazin-1-yl)propan-l-one] | < 3 nM | < 3 nM
N[C@H](Cc1ccc(Oc2ccnc3[nH]ccc23)cc1)C(=O)Nc1nccs1 [Example 106, (R)-3-(4-((1H-pyrrolo[2,3-b]pyridin-4-yl)oxy)phenyl)-2-amino-N-(thiazol-2-yl)propanamide] | > 30 nM | > 30 nM
N[C@@H](Cc1ccc(Oc2ccnc3[nH]cc(CO)c23)c(F)c1)C(=O)N1CCN(Cc2ccccc2)CC1 [Example 207, (S)-2-amino-1-(4-benzylpiperazin-1-yl)-3-(3-fluoro-4-((3-(hydroxymethyl)-1H-pyrrolo[2,3-b]pyridin-4-yl)oxy)phenyl)propan-1-one] | < 3 nM | < 3 nM
COCCCNC(=O)[C@@H](N)Cc1ccc(Oc2ccnc3[nH]cc(C)c23)cc1 [Example 87, (S)-2-amino-N-(3-methoxylpropyl)-3-(4-((3-methyl-1H-pyrrolo[2,3-b]pyridin-4-yl)oxy)phenyl)propanamide] | < 3 nM | < 3 nM
Cc1c[nH]c2nccc(Oc3ccc(C[C@H](N)C(=O)N4CC5(CNC5)C4)cc3F)c12 [Example 29, (S)-2-amino-3-(3-fluoro-4-((3-methyl-1H-pyrrolo[2,3-b]pyridin-4-yl)oxy)phenyl)-1-(2,6-diazaspiro[3.3]heptan-2-yl)propan-1-one] | < 3 nM | < 3 nM
N[C@@H](Cc1ccc(Oc2ccnc3[nH]ccc23)cc1)C(=O)NC1CCOCC1 [Example 99, (S)-3-(4-((1H-pyrrolo[2,3-b]pyridin-4-yl)oxy)phenyl)-2-amino-N-(tetrahydro-2H-pyran-4-yl)propanamide] | 3 to 30 nM | 3 to 30 nM
CN(Cc1ccccc1)C(=O)[C@H](N)Cc1ccc(Oc2ccnc3[nH]ccc23)cc1 [Example 144, (R)-3-(4-((1H-pyrrolo[2,3-b]pyridin-4-yl)oxy)phenyl)-2-amino-N-benzyl-N-methylpropanamide] | > 30 nM | > 30 nM
Cc1c[nH]c2nccc(Oc3ccc(C[C@H](N)C(=O)N4CC[C@H](N(C)C)C4)cc3F)c12 [Example 49, (S)-2-amino-1-((S)-3-(dimethylamino)pyrrolidin-1-yl)-3-(3-fluoro-4-((3-methyl-1H-pyrrolo[2,3-b]pyridin-4-yl)oxy)phenyl)propan-1-one] | < 3 nM | < 3 nM
Cc1c[nH]c2nccc(Oc3ccc(C[C@H](N)C(=O)N4CCN(Cc5cncn5C)CC4)cc3F)c12 [Example 158, (S)-2-amino-3-(3-fluoro-4--((3-methyl-1H-pyrrolo[2,3-b]pyridin-4-yl)oxy)phenyl)-1-(4-((1-methyl-1H-imidazol-5-yl)methyl)piperazin-1-yl)propan-1-one] | < 3 nM | < 3 nM
N[C@@H](Cc1ccc(Oc2ccnc3[nH]cc(-c4ccccc4)c23)cc1)C(=O)N1CCN(Cc2ccccc2)CC1 [Example 199, (S)-2-amino-1-(4-benzylpiperazin-1-yl)-3-(4-((3-phenyl-1H-pyrrolo[2,3-b]pyridin-4-yl)oxy)phenyl)propan-1-one] | < 3 nM | < 3 nM
Cn1cncc1-c1c[nH]c2nccc(Oc3ccc(C[C@H](N)C(=O)N4CCN(Cc5ccccc5)CC4)cc3)c12 [Example 197, (S)-2-amino-1-(4-benzylpiperazin-1-yl)-3-(4-((3-(1-methyl-1H-imidazol-5-yl)-1H-pyrrolo[2,3-b]pyridin-4-yl)oxy)phenyl)propan-1-one] | < 3 nM | < 3 nM
Cc1c[nH]c2nccc(Oc3ccc(C[C@H](N)C(=O)N4CCN(C(=O)C5CC5)CC4)cc3F)c12 [Example 170, (S)-2-amino-1-(4-(cyclopropanecarbonyl)piperazin-1-yl)-3-(3-fluoro-4-((3-methyl-1H-pyrrolo[2,3-b]pyridin-4-yl)oxy)phenyl)propan-1-one] | < 3 nM | < 3 nM
N[C@@H](Cc1ccc(Oc2ccnc3[nH]cc(C#CCO)c23)cc1)C(=O)NC1CCCCC1 [Example 217, (S)-2-amino-N-cyclohexyl-3-(4-((3-(3-hydroxyprop-1-yn-1-yl)-1H-pyrrolo[2,3-b]pyridin-4-yl)oxy)phenyl)propanamide] | < 3 nM | < 3 nM
Cc1c[nH]c2nccc(Oc3ccc(C[C@H](N)C(=O)N4CC=C(c5ccccc5)CC4)cc3F)c12 [Example 21, (S)-2-amino-3-(3-fluoro-4-((3-methyl-1H-pyrrolo[2,3-b]pyridin-4-yl)oxy)phenyl)-1-(4-phenyl-5,6-dihydropyridin-1(2H)-yl)propan-1-one] | < 3 nM | < 3 nM
Cc1c[nH]c2nccc(Oc3ccc(C[C@H](N)C(=O)Nc4ccccc4)cc3F)c12 [Example 145, (S)-2-amino-3-(3-fluoro-4-((3-methyl-1H-pyrrolo[2,3-b]pyridin-4-yl)oxy)phenyl)-N-phenylpropanamide] | < 3 nM | < 3 nM
Cc1c[nH]c2nccc(Oc3ccc(C[C@H](N)C(=O)N4CCN(C(=O)c5cccnc5)CC4)cc3F)c12 [Example 174, (S)-2-amino-3-(3-fluoro-4-((3-methyl-1H-pyrrolo[2,3-b]pyridin-4-yl)oxy)phenyl)-1-(4-nicotinoylpiperazin-1-yl)propan-1-one] | < 3 nM | < 3 nM
CN(C)CCNC(=O)[C@H](N)Cc1ccc(Oc2ccnc3[nH]ccc23)cc1 [Example 96, (R)-3-(4-((1H-pyrrolo[2,3-b]pyridin-4-yl)oxy)phenyl)-2-amino-N-(2-(dimethylamino)ethyl)propanamide] | > 30 nM | > 30 nM
Cc1c[nH]c2nccc(Oc3ccc(C[C@H](N)C(=O)NCCCN(C)C)cc3F)c12 [Example 15, (S)-2-amino-N-(3-(dimethylamino)propyl)-3-(3-fluoro-4-((3-methyl-1H-pyrrolo[2,3-b]pyridin-4-yl)oxy)phenyl)propanamide] | < 3 nM | < 3 nM
